Test results as given in patent US8658604B2, “Template-fixed beta-hairpin peptidomimetics with protease inhibitory activity” (Polyphor Ltd, priority 2005, dated 2014).
Where a SMILES comes first, the peptide text is derived from it.

How the values were obtained:
[1] = biological target: Trypsin, from human pancreas (Homo sapiens, UniProt P07477); assay: Enzymatic assay, trypsin; conditions: at 100 μM
[2] = biological target: Thrombin, from Human Plasma (Homo sapiens, UniProt P00734); assay: Enzymatic assay, thrombin
[3] = biological target: Chymotrypsin, from human pancreas (Homo sapiens, UniProt P17538); assay: Enzymatic assay, chymotrypsin; conditions: at 100 μM
[4] = tested on: Tryptase, from human lung; assay: Enzymatic assay, tryptase; conditions: at 100 μM
Chymase, from human skin = biological target: T1, Chymase, from human skin (Homo sapiens, UniProt P23946); assay: Enzymatic assay, chymase
T1 sequence (P23946 22-247): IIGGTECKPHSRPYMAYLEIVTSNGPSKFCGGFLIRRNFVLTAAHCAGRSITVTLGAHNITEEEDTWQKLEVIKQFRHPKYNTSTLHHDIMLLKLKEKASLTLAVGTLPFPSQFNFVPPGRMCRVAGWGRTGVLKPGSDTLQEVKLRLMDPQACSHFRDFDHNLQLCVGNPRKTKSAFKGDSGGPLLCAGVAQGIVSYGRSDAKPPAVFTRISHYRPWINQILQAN

[5] = biological target: T2, Elastase from human neutrophils (Homo sapiens, UniProt P08246); assay: Enzymatic assay, elastase; conditions: Elastase IC50
T2 sequence (P08246 30-267): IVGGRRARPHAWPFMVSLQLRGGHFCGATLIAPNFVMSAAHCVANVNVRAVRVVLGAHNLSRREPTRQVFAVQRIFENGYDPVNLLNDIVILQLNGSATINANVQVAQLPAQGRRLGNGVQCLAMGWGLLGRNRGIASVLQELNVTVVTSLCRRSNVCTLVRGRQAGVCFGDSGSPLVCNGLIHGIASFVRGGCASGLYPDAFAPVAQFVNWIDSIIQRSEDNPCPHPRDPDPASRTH

[6] = biological target: T3, CathepsinG, from human neutrophils (Homo sapiens, UniProt P08311); assay: Enzymatic assay, cathepsin G
T3 sequence (P08311 21-244): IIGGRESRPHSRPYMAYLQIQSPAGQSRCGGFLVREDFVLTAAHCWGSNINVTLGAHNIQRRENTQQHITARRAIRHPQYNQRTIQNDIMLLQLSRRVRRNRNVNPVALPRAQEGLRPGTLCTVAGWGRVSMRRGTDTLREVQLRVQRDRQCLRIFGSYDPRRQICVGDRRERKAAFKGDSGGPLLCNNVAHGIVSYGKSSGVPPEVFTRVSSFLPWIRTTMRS

[7] = biological target: Coagulation Factor Xa, from uman plasma (Homo sapiens, UniProt P00742); assay: Enzymatic assay, coagulation factor Xa
[8] = biological target: Urokinase from human urine (Homo sapiens, UniProt P00749); assay: Enzymatic assay, urokinase

Chymotrypsin, from human pancreas, sequence (P17538 19-263): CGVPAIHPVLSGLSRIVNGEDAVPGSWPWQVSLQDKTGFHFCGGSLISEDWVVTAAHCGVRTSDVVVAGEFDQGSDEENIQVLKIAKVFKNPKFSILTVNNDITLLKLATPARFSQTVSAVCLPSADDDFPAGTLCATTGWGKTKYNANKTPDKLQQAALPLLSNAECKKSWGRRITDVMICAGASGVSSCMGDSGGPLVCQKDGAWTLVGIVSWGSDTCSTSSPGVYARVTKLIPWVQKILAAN
Coagulation Factor Xa, from uman plasma, sequence (P00742 235-488 limits assumed): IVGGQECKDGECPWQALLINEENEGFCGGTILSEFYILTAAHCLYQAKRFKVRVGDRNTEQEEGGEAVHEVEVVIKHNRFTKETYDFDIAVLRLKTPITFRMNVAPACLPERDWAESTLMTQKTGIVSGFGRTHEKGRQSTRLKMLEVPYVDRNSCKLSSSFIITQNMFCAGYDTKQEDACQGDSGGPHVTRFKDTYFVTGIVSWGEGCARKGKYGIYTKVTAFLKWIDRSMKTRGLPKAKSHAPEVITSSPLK
Coagulation Factor Xa, from uman plasma, sequence (P00742 41-179 limits assumed): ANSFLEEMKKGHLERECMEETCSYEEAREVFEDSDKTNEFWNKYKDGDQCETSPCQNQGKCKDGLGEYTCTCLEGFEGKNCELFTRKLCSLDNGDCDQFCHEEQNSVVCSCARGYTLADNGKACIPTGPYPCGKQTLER

Compound	Trypsin at 100 μM % [1]	Thrombin at 100 μM % [2]	Chymotrypsin at 100 μM % [3]	Tryptase At 100 μM % [4]	Chymase at 100 μM % (Chymase, from human skin)	IC50 [5]	Cathepsin G at 100 μM % [6]	FXa at 100 μM % [7]	Urokinase at 100 μM % [8]	IC50 ([6]; Cathepsin G IC50)
CCCCCCCC[C@@H]1NC(=O)[C@@H]2CCCN2C(=O)[C@H]2CCCN2C(=O)[C@H](CCC(N)=O)NC(=O)[C@@H]2CSSC[C@H](NC1=O)C(=O)N[C@@H]([C@@H](C)O)C(=O)N[C@@H](C)C(=O)N[C@@H](CO)C(=O)N[C@@H](CCCCCCCC)C(=O)N1CCC[C@H]1C(=O)N1CCC[C@H]1C(=O)N[C@@H](CCC(N)=O)C(=O)N2 [Ex. 148] (HELM PEPTIDE1{[CCCCCCCC[C@H](N[*:1])C(=O)[*:2]].C.T.A.S.[CCCCCCCC[C@H](N[*:1])C(=O)[*:2]].P.P.Q.C.Q.[dP].P}$PEPTIDE1,PEPTIDE1,2:R3-10:R3|PEPTIDE1,PEPTIDE1,1:R1-13:R2$$$V2.0)	9%	32%	91%	30%	7%	11 nM	52 at 100%	8%	12%	–
CCCCCCCC[C@@H]1NC(=O)[C@H](CO)NC(=O)[C@H](C)NC(=O)[C@H]([C@@H](C)O)NC(=O)[C@@H]2CSSC[C@H](NC(=O)[C@H](CCC(N)=O)NC(=O)[C@@H]3CCCN3C(=O)[C@@H]3CCCN3C1=O)C(=O)N[C@@H](CCC(N)=O)C(=O)N1CCC[C@@H]1C(=O)N1CCC[C@H]1C(=O)N[C@@H](CCc1ccccc1)C(=O)N2 [Ex. 153] (HELM PEPTIDE1{[O=C([C@H](CCc1ccccc1)N[*:1])[*:2]].C.T.A.S.[CCCCCCCC[C@H](N[*:1])C(=O)[*:2]].P.P.Q.C.Q.[dP].P}$PEPTIDE1,PEPTIDE1,2:R3-10:R3|PEPTIDE1,PEPTIDE1,1:R1-13:R2$$$V2.0)	8%	16%	84%	9%	0%	8.5 nM	56 at 100%	11%	16%	–
CCCCCCCC[C@@H]1NC(=O)[C@@H]2CCCN2C(=O)[C@H]2CCCN2C(=O)[C@H](Cc2ccc(O)cc2)NC(=O)[C@H]([C@@H](C)O)NC(=O)[C@H](CCC(N)=O)NC(=O)[C@@H]2CCCN2C(=O)[C@@H]2CCCN2C(=O)[C@H]([C@@H](C)CC)NC(=O)[C@H](CO)NC(=O)[C@H](C)NC(=O)[C@H]([C@@H](C)O)NC(=O)[C@H](CCC(N)=O)NC1=O [Ex. 154] (HELM PEPTIDE1{[CCCCCCCC[C@H](N[*:1])C(=O)[*:2]].Q.T.A.S.I.P.P.Q.T.Y.[dP].P}$PEPTIDE1,PEPTIDE1,1:R1-13:R2$$$V2.0)	0%	7%	4%	15%	0%	8.3 nM	27 at 100%	0%	1%	–
C[C@@H]1NC(=O)[C@H]([C@@H](C)O)NC(=O)[C@@H]2CSSC[C@H](NC(=O)[C@H](CCC(N)=O)NC(=O)[C@@H]3CCCN3C(=O)[C@@H]3CCCN3C(=O)[C@H](CC3CCCCC3)NC(=O)[C@H](CO)NC1=O)C(=O)N[C@@H](Cc1ccccc1)C(=O)N1CCC[C@@H]1C(=O)N1CCC[C@H]1C(=O)N[C@@H](CCc1ccccc1)C(=O)N2 [Ex. 155] (HELM PEPTIDE1{[O=C([C@H](CCc1ccccc1)N[*:1])[*:2]].C.T.A.S.[Cha].P.P.Q.C.F.[dP].P}$PEPTIDE1,PEPTIDE1,2:R3-10:R3|PEPTIDE1,PEPTIDE1,1:R1-13:R2$$$V2.0)	18%	19%	83%	30%	3%	8.2 nM	52 at 100%	9%	12%	–
CCCCCCCC[C@@H]1NC(=O)[C@@H]2CCCN2C(=O)[C@H]2CCCN2C(=O)[C@H](Cc2ccc(O)cc2)NC(=O)[C@H](CCCCN)NC(=O)[C@H](CCC(N)=O)NC(=O)[C@@H]2CCCN2C(=O)[C@@H]2CCCN2C(=O)[C@H]([C@@H](C)CC)NC(=O)[C@H](CO)NC(=O)[C@H](C)NC(=O)[C@H]([C@@H](C)O)NC(=O)[C@H](CCC(=O)O)NC1=O [Ex. 156] (HELM PEPTIDE1{[CCCCCCCC[C@H](N[*:1])C(=O)[*:2]].E.T.A.S.I.P.P.Q.K.Y.[dP].P}$PEPTIDE1,PEPTIDE1,1:R1-13:R2$$$V2.0)	0%	17%	5%	15%	0%	7.5 nM	46 at 100%	0%	7%	–
CCCCCCCC[C@@H]1NC(=O)[C@H](CO)NC(=O)[C@H](C)NC(=O)[C@H]([C@@H](C)O)NC(=O)[C@@H]2CSSC[C@H](NC(=O)[C@H](CCC(N)=O)NC(=O)[C@@H]3CCCN3C(=O)[C@@H]3CCCN3C1=O)C(=O)N[C@@H](Cc1ccc(O)cc1)C(=O)N1CCC[C@@H]1C(=O)N[C@@H](CCC(N)=O)C(=O)N[C@@H](CCCC)C(=O)N2 [compound 169] (HELM PEPTIDE1{[Nle].C.T.A.S.[CCCCCCCC[C@H](N[*:1])C(=O)[*:2]].P.P.Q.C.Y.[dP].Q}$PEPTIDE1,PEPTIDE1,2:R3-10:R3|PEPTIDE1,PEPTIDE1,1:R1-13:R2$$$V2.0)	10.8%	20.6%	79.6%	4.2%	0%	18 nM	–	13.3%	10.4%	20300 nM
CC[C@H](C)[C@@H]1NC(=O)[C@H](CO)NC(=O)[C@H](C)NC(=O)[C@H]([C@@H](C)O)NC(=O)[C@@H]2CSSC[C@H](NC(=O)[C@H](CCC(N)=O)NC(=O)[C@@H]3CCCN3C(=O)[C@@H]3CCCN3C1=O)C(=O)N[C@@H](Cc1ccc(O)cc1)C(=O)N[C@H](CCCCN)C(=O)N[C@@H](CCC(=O)O)C(=O)N[C@@H](CCc1ccccc1)C(=O)N2 [compound 174] (HELM PEPTIDE1{[O=C([C@H](CCc1ccccc1)N[*:1])[*:2]].C.T.A.S.I.P.P.Q.C.Y.[dK].E}$PEPTIDE1,PEPTIDE1,2:R3-10:R3|PEPTIDE1,PEPTIDE1,1:R1-13:R2$$$V2.0)	7%	11%	85%	10%	0%	12 nM	56 at 100%	3%	1%	–
CCCCCCCC[C@@H]1NC(=O)[C@H](CCC(N)=O)NC(=O)[C@H]2CCCN2C(=O)[C@H](Cc2ccc(O)cc2)NC(=O)[C@@H]2CSSC[C@H](NC1=O)C(=O)N[C@@H]([C@@H](C)O)C(=O)N[C@@H](C)C(=O)N[C@@H](CO)C(=O)N[C@@H]([C@@H](C)CC)C(=O)N1CCC[C@H]1C(=O)N1CCC[C@H]1C(=O)N[C@@H](CCC(N)=O)C(=O)N2 [compound 177] (HELM PEPTIDE1{[CCCCCCCC[C@H](N[*:1])C(=O)[*:2]].C.T.A.S.I.P.P.Q.C.Y.[dP].Q}$PEPTIDE1,PEPTIDE1,2:R3-10:R3|PEPTIDE1,PEPTIDE1,1:R1-13:R2$$$V2.0)	5%	17%	86%	15%	3%	7 nM	54 at 100%	7%	12%	–
